In paper PMC3985586, “Cratoxylum formosum (Jack) Dyer ssp. pruniflorum (Kurz) Gogel. (Hóng yá mù) extract induces apoptosis in human hepatocellular carcinoma HepG2 cells through caspase-dependent pathways” (Chinese Medicine, 2014):
≈ marks a conversion by molar mass, not a printed value.

How the values were obtained:
HepG2 cells [1] = assay: Mitochondrial membrane potential (DiOC6, flow cytometry); assay type: cell-based, human; settings: HepG2, 35% (v/v) H2O2 positive control, 12 and 24 h, P < 0.001
Protocol: Cells (1 × 10^6 cells/mL) were seeded into a 24-well plate, incubated at 37°C for 24 h, and then treated with 0, 30, 60, or 120 μg/mL of CF extract for 12 or 24 h. Concentrated hydrogen peroxide (35%, v/v) was used as a positive control. Next, the cells were washed, harvested by trypsinization, transferred to a microcentrifuge tube, and stained with a lipophilic fluorogenic dye, DiOC6, at 40 nM for 30 min in the dark at 37°C. After the incubation, the cells were immediately analyzed by flow cytometry (BD FACSCanto II, San Jose, CA, USA) for incorporation of the fluorochrome.

Vero cells = assay: Neutral red cytotoxicity assay, Vero; assay type: cell-based, African green monkey; settings: Chlorocebus sabaeus, 24 h, read-out: IC50 ± SD Vero
Protocol: (§1) Cell viability was measured by an NR colorimetric assay. Human HepG2 cells and normal African green monkey kidney Vero cells were used as cell models to determine the percent cytotoxicity. Briefly, cells (4 × 10^6 cells/mL) were treated with CF extract at various concentrations (10, 25, 50, 100, 250, and 500 μg/mL) and the standard anticancer drug melphalan as a positive control, while the untreated groups were exposed to fresh medium at equal volumes to those used for the treated groups. After 24 h of exposure, the cells were incubated for 2 h with NR dye (50 μg/mL) dissolved in DMEM, and then washed with phosphate-buffered saline (PBS; pH 7.4). Finally, the cells were lysed with 0.33% HCl/isopropanol. A microplate reader (Tecan, France) was used to measure the absorbances of NR dye in the viable cells at 520 and 650 (reference) nm. The percentage of cell cytotoxicity of the CF extract was calculated as described by Machana et al.[18] and compared with that of melphalan. The selectivity index (SI) was calculated to determine the selective cancer cell line cytotoxicity. The SI of the test compound was compared with the IC50 for the Vero cells divided by the IC50 for the HepG2 cells.

HepG2 cells [2] = assay: DAPI staining apoptosis induction assay; assay type: cell-based, human; settings: HepG2, 24 h, CF 120 μg/mL, melphalan 80 μg/mL (2 × IC50)
Protocol: Cells (1 × 10^6 cells/well) were treated with CF extract and the melphalan for 24 h at 2 × IC50, and the morphological changes of the induced apoptotic cells were determined by DAPI staining. The concentrations of CF extract and melphalan used in the following apoptosis experiments were 120 and 80 μg/mL, respectively. The cells were fixed in pure methanol at 4°C for 10 min, and then stained with DAPI (1 μg/mL) at room temperature in the dark. The excess dye was removed and glycerin was added to the cells with PBS at a 1:1 ratio and mixed well. Next, the cells were fixed on a slide and the apoptotic bodies observed at 40× objective magnification under an inverted fluorescence microscope (Eclipse TS100; Nikon, UK). The percentage of apoptotic cells was calculated as described by Machana et al.[18]. The average% apoptotic cells were calculated from three independent wells with 10 eye views in each well.

HepG2 cells [3] = assay: Neutral red cytotoxicity assay, HepG2; assay type: cell-based, human
Protocol: as §1

SMILES	Alteration of MMP compared to untreated cells (HepG2 cells [1])	IC50 (Vero cells) [µg/mL]	Percentage of apoptotic cells (HepG2 cells [2]) [%]	IC50 (HepG2 cells [3]; Homo sapiens, HepG2, 24 h, read-out: IC50 ± SD HepG2) [µg/mL]	Selectivity index (SI) (HepG2 cells [3]; IC50 for Vero cells divided by IC50 for HepG2 cells, SI > 3 indicates high selectivity)
OO [H2O2, hydrogen peroxide]	significantly different				
N[C@@H](Cc1ccc(N(CCCl)CCCl)cc1)C(=O)O [Melphalan, melphalan]		59.9 ± 3.2 (≈ 196 µM)	41.6 ± 2.1	37.7 ± 9.8 (≈ 124 µM)	1.6
